Test results published in patent publication US20120083522A1, “MODULATION OF INFLAMMATORY RESPONSES BY FACTOR XI” (Isis Pharmaceuitcals, inc., priority 2009, published 2012).
In the oligonucleotide strings, read from the 5' end, every base follows the letter of its sugar. An asterisk marks phosphorothioate; unmarked linkages are phosphodiester. Other units and linkages are bracketed, terminal groups are in braces. A string of capitals states the bases alone. e = 2'-O-(2-methoxyethyl) (MOE); [5mC] = 5-methylcytosine; d = 2'-deoxy (DNA)

Legend:
human Factor XI mRNA [1] = experiment: Antisense inhibition in HepG2 cells by microwalk gapmers, 75 nM, lipofectin (Example 3); type: cell-based; conditions: HepG2 cells, 75 nM, oligonucleotides targeted to nucleobases 1275 to 1318 of SEQ ID NO: 1
Procedure, shortened: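 HepG2 cells (10,000 per well) were transfected with 75 nM gapmer using lipofectin and treated for about 24 h. Factor XI mRNA was quantified by real-time PCR, normalized to RiboGreen total RNA and expressed as percent inhibition versus untreated controls.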

human Factor XI mRNA [2] = experiment: Antisense inhibition in HepG2 cells by microwalk gapmers, 8,000 nM, electroporation (Example 14); type: cell-based; conditions: HepG2 cells, 8,000 nM
Procedure, shortened: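 HepG2 cells electroporated with 8,000 nM 2′-MOE phosphorothioate gapmer (5-10-5, 5-8-5 or 6-8-6). Factor XI mRNA measured after ~24 h by qRT-PCR, normalised to RIBOGREEN total RNA. Reported as percent inhibition versus untreated cells.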

[3] = set-up: species or system Sprague-Dawley rats; conditions: rat, in vivo, sc, 20 mg/kg
Procedure: The concentration of the full-length oligonucleotide as well as the total oligonucleotide concentration (including the degraded form) was measured. The method used is a modification of previously published methods (Leeds et al., 1996; Geary et al., 1999) which consist of a phenol-chloroform (liquid-liquid) extraction followed by a solid phase extraction. An internal standard (ISIS 355868, a 27-mer 2′-O-methoxyethyl modified phosphorothioate oligonucleotide, […], designated herein as SEQ ID NO: 270) was added prior to extraction. […] The results are presented in Tables 98 and 99, expressed as μg/g liver or kidney tissue.

human Factor XI mRNA [4] = experiment: Dose-dependent inhibition and IC50 in HepG2 cells, electroporation (Example 15); type: cell-based
Procedure: Cells were plated at a density of 20,000 cells per well and transfected using electroporation with 123.46 nM, 370.37 nM, 1,111.11 nM, 3,333.33 nM and 10,000 nM concentrations of antisense oligonucleotide, as specified in Table 52. After a treatment period of approximately 16 hours, RNA was isolated from the cells and Factor XI mRNA levels were measured by quantitative real-time PCR. Human Factor XI primer probe set RTS 2966 was used to measure mRNA levels. Factor XI mRNA levels were adjusted according to total RNA content, as measured by RIBOGREEN. Results are presented as percent inhibition of Factor XI, relative to untreated control cells.

Factor XI mRNA = experiment: Cynomolgus monkeys, 25 mg/kg: liver Factor XI RNA analysis (Example 30); type: in vivo; conditions: cynomolgus monkeys, day 55, in comparison to the PBS control
Procedure: (§1) Groups, each consisting of two male and two female monkeys, were injected subcutaneously with 25 mg/kg of ISIS 416850, ISIS 449709, ISIS 445522, ISIS 449710, ISIS 449707, ISIS 449711, ISIS 449708, 416858 and ISIS 445531. Antisense oligonucleotide was administered to the monkeys at 25 mg/kg three times per week for week 1 and 25 mg/kg twice per week for weeks 2 to 8. A control group, consisting of two male and two female monkeys was injected subcutaneously with PBS according to the same dosing regimen. Body weights were taken 14 days and 7 days before the start of treatment and were then measured weekly throughout the treatment period. Blood samples were collected 14 days and 5 days before the start of treatment and subsequently several times during the dosing regimen for measurement of various hematologic factors. On day 55, the monkeys were euthanized by exsanguination while under deep anesthesia, and organs harvested for further analysis.
On day 55, RNA was extracted from liver tissue for real-time PCR analysis of Factor XI using primer probe set LTS00301. Results are presented as percent inhibition of Factor XI, relative to PBS control.

[5] = test system: IL-1β, IL-6, IFN-γ, TNF-α, IL-8, MIP-1α, MCP-1, MIP-10, RANTES; experiment: Cynomolgus monkeys: cytokine and chemokine assays (Example 30); type: in vivo
Procedure: as §1
Blood samples obtained from all monkey groups were sent to Pierce Biotechnology (Woburn, Mass.) for measurements of chemokine and cytokine levels. Levels of IL-1β, IL-6, IFN-γ, and TNF-α were measured using the respective primate antibodies and levels of IL-8, MIP-1α, MCP-1, MIP-10 and RANTES were measured using the respective cross-reacting human antibodies. Measurements were taken 14 days before the start of treatment and on day 55, when the monkeys were euthanized.

[6] = Tolerability in CD1 mice: body and organ weight (Example 25); type: in vivo; conditions: 50 mg/kg s.c. twice per week for 6 weeks
Factor XI protein = experiment: Cynomolgus monkeys: plasma Factor XI protein ELISA (Example 30); type: in vivo; conditions: cynomolgus monkeys, Example 30
Procedure: as §1
Plasma samples from all monkey groups taken on different days were analyzed by a sandwich-style ELISA assay (Affinity Biologicals Inc.) using an affinity-purified polyclonal anti-Factor XI antibody as the capture antibody and a peroxidase-conjugated polyclonal anti-Factor XI antibody as the detecting antibody. Monkey plasma was diluted 1:50 for the assay. Peroxidase activity was expressed by incubation with the substrate o-phenylenediamine. The color produced was quantified using a microplate reader at 490 nm and was considered to be proportional to the concentration of Factor XI in the samples.
The results are presented in Table 148, expressed as percentage reduction relative to that of the PBS control.

[7] = day −14 (before start of treatment)

Substance: 416848 (antisense CACAGTTTCTGGCAGGCCTC; 5-10-5 gapmer, wing sugar chemistry not given here, further chemistry not given here) [compound 416848]
- % inhibition of human Factor XI mRNA levels (human Factor XI mRNA [1]): 86%
- Percent inhibition of human Factor XI mRNA levels (human Factor XI mRNA [2]): 87%
- Half-life in the liver and kidney [3]: 24 days

Substance: 416851 (antisense GTGCACAGTTTCTGGCAGGC; 5-10-5 gapmer, wing sugar chemistry not given here, further chemistry not given here) [compound 416851]
- % inhibition of human Factor XI mRNA levels (human Factor XI mRNA [1]): 88%
- Percent inhibition of human Factor XI mRNA levels (human Factor XI mRNA [2]): 89%
- percent inhibition of Factor XI mRNA (human Factor XI mRNA [4]; electroporation, 123.47 nM): 13%
- percent inhibition of Factor XI mRNA (human Factor XI mRNA [4]; electroporation, 370.37 nM): 35%
- percent inhibition of Factor XI mRNA (human Factor XI mRNA [4]; electroporation, 1,111.11 nM): 36%
- percent inhibition of Factor XI mRNA (human Factor XI mRNA [4]; electroporation, 3,333.33 nM): 64%
- percent inhibition of Factor XI mRNA (human Factor XI mRNA [4]; electroporation, 10,000.0 nM): 72%
- Half-life in the liver and kidney [3]: 24 days

Substance: 416852 (antisense TGGTGCACAGTTTCTGGCAG; 5-10-5 gapmer, wing sugar chemistry not given here, further chemistry not given here) [compound 416852]
- % inhibition of human Factor XI mRNA levels (human Factor XI mRNA [1]): 84%
- Percent inhibition of human Factor XI mRNA levels (human Factor XI mRNA [2]): 87%
- Half-life in the liver and kidney [3]: 28 days

Substance: 416859 (antisense GACGGCATTGGTGCACAGTT; 5-10-5 gapmer, wing sugar chemistry not given here, further chemistry not given here) [compound 416859]
- % inhibition of human Factor XI mRNA levels (human Factor XI mRNA [1]): 90%
- Percent inhibition of human Factor XI mRNA levels (human Factor XI mRNA [2]): 85%
- Half-life in the liver and kidney [3]: 19 days

Substance: 416860 (antisense CGGACGGCATTGGTGCACAG; 5-10-5 gapmer, wing sugar chemistry not given here, further chemistry not given here) [compound 416860]
- % inhibition of human Factor XI mRNA levels (human Factor XI mRNA [1]): 88%
- Percent inhibition of human Factor XI mRNA levels (human Factor XI mRNA [2]): 89%
- percent inhibition of Factor XI mRNA (human Factor XI mRNA [4]; electroporation, 123.47 nM): 0%
- percent inhibition of Factor XI mRNA (human Factor XI mRNA [4]; electroporation, 370.37 nM): 28%
- percent inhibition of Factor XI mRNA (human Factor XI mRNA [4]; electroporation, 1,111.11 nM): 39%
- percent inhibition of Factor XI mRNA (human Factor XI mRNA [4]; electroporation, 3,333.33 nM): 41%
- percent inhibition of Factor XI mRNA (human Factor XI mRNA [4]; electroporation, 10,000.0 nM): 40%
- Half-life in the liver and kidney [3]: 21 days

Substance: 416861 (antisense GCGGACGGCATTGGTGCACA; 5-10-5 gapmer, wing sugar chemistry not given here, further chemistry not given here) [compound 416861]
- % inhibition of human Factor XI mRNA levels (human Factor XI mRNA [1]): 92%
- Percent inhibition of human Factor XI mRNA levels (human Factor XI mRNA [2]): 90%
- percent inhibition of Factor XI mRNA (human Factor XI mRNA [4]; electroporation, 123.47 nM): 0%
- percent inhibition of Factor XI mRNA (human Factor XI mRNA [4]; electroporation, 370.37 nM): 15%
- percent inhibition of Factor XI mRNA (human Factor XI mRNA [4]; electroporation, 1,111.11 nM): 27%
- percent inhibition of Factor XI mRNA (human Factor XI mRNA [4]; electroporation, 3,333.33 nM): 66%
- percent inhibition of Factor XI mRNA (human Factor XI mRNA [4]; electroporation, 10,000.0 nM): 80%
- Half-life in the liver and kidney [3]: 25 days

Substance: 416863 (antisense CAGCGGACGGCATTGGTGCA; 5-10-5 gapmer, wing sugar chemistry not given here, further chemistry not given here) [compound 416863]
- % inhibition of human Factor XI mRNA levels (human Factor XI mRNA [1]): 83%
- Percent inhibition of human Factor XI mRNA levels (human Factor XI mRNA [2]): 86%
- Half-life in the liver and kidney [3]: 20 days

Substance: 416866 (antisense CTGGCAGCGGACGGCATTGG; 5-10-5 gapmer, wing sugar chemistry not given here, further chemistry not given here) [compound 416866]
- % inhibition of human Factor XI mRNA levels (human Factor XI mRNA [1]): 88%
- Percent inhibition of human Factor XI mRNA levels (human Factor XI mRNA [2]): 84%
- Half-life in the liver and kidney [3]: 16 days

Substance: 416867 (antisense ACTGGCAGCGGACGGCATTG; 5-10-5 gapmer, wing sugar chemistry not given here, further chemistry not given here) [compound 416867]
- % inhibition of human Factor XI mRNA levels (human Factor XI mRNA [1]): 83%
- Percent inhibition of human Factor XI mRNA levels (human Factor XI mRNA [2]): 85%
- Half-life in the liver and kidney [3]: 19 days

Substance: ISIS 445522: microwalk gapmer of Table 51 (antisense eG*e[5mC]*eA*e[5mC]*eA*dG*dT*dT*dT*d[5mC]*dT*dG*dG*e[5mC]*eA*eG*eG*e[5mC])
- Factor XI mRNA in liver (in words) (Factor XI mRNA): significant reduction of Factor XI mRNA
- IL-1β level ([5]; 25 mg/kg s.c., day 55): 341 pg/mL
- MIP-1β level ([5]; 25 mg/kg s.c., day 55): 63 pg/mL
- IL-1β level [5, 7]: 188 pg/mL
- MIP-1β level [5, 7]: 27 pg/mL
- Body weight (increase over PBS control weight before start of treatment) [6]: 11 g
- Kidney weight as percentage of body weight ([6]; end of study): 1.7%
- Liver weight as percentage of body weight ([6]; end of study): 6%
- Spleen weight as percentage of body weight ([6]; end of study): 0.4%
- Factor XI protein levels (in words) (Factor XI protein): time-dependent decrease in protein levels
